Test results as given in the supplement of paper PMC10307832.

How the values were obtained:
Assay in all cases: relative viability (nuclei count vs DMSO), 5 days (fraction); higher = more cells survive
[1] = compound: CCc1c2c(nc3ccc(OC(=O)N4CCC(N5CCCCC5)CC4)cc13)-c1cc3c(c(=O)n1C2)COC(=O)[C@]3(O)CC [Irinotecan] + C[C@]1(O)C[C@@H](c2nc(-c3ccc4ccc(-c5ccccc5)nc4c3)c3c(N)nccn32)C1 [Linsitinib] (partner 1 µM)
How it was run: (§1)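 Relative viability was taken as the ratio of nuclei in treated wells to nuclei in vehicle wells. Lung cancer cell lines in 1536-well plates received compounds by pin tool one day after seeding, either one drug alone or a fixed anchor-drug dose plus five library-drug doses (not always all listed) in √10 steps. Nuclei were counted on 4× images after 5 days of treatment, and values are medians of duplicate plates.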

[2] = compound: Cn1cc(-c2cnc3ccc4ccc(CS(=O)(=O)NCc5ccccn5)cc4c(=O)c3c2)cn1 [MK-8033] + Nc1nc2[nH]cc(CCc3ccc(C(=O)N[C@@H](CCC(=O)O)C(=O)O)cc3)c2c(=O)[nH]1 [Pemetrexed] (partner 0.2 µM)
How it was run: as §1

[3] = compound: Cn1cc(-c2cnc3ccc4ccc(CS(=O)(=O)NCc5ccccn5)cc4c(=O)c3c2)cn1 [MK-8033] + NC(=O)Nc1cc(-c2cccc(F)c2)sc1C(=O)N[C@H]1CCCNC1 [AZD7762] (partner 0.2 µM)
How it was run: as §1

[4] = compound: Cn1cc(-c2cnc3ccc4ccc(CS(=O)(=O)NCc5ccccn5)cc4c(=O)c3c2)cn1 [MK-8033] + COc1cccc2cc(-c3nc([C@H]4CC[C@H](C(=O)O)CC4)n4ncnc(N)c34)[nH]c12 [OSI-027] (partner 0.5 µM)
How it was run: as §1

Cell Line	relative viability ([1]; first compound 0.6325 µM)	relative viability ([1]; first compound 2 µM)	relative viability ([1]; first compound 6.325 µM)	relative viability ([1]; first compound 20 µM)	relative viability ([2]; first compound 0.02 µM)	relative viability ([2]; first compound 0.06325 µM)	relative viability ([2]; first compound 0.2 µM)	relative viability ([2]; first compound 0.6325 µM)	relative viability ([2]; first compound 2 µM)	relative viability ([3]; first compound 0.02 µM)	relative viability ([3]; first compound 0.06325 µM)	relative viability ([3]; first compound 0.2 µM)	relative viability ([3]; first compound 0.6325 µM)	relative viability ([3]; first compound 2 µM)	relative viability ([4]; first compound 0.02 µM)	relative viability ([4]; first compound 0.06325 µM)	relative viability ([4]; first compound 0.2 µM)	relative viability ([4]; first compound 0.6325 µM)	relative viability ([4]; first compound 2 µM)
NCI-H3122	0.902	0.293	0.24	0.22	0.201	0.201	0.195	0.188	0.198	0.931	0.886	0.965	1.06	0.977	1.05	0.957	0.926	0.991	0.916
HCC-15	0.458	0.204	0.152	0.158	0.222	0.221	0.236	0.237	0.194	1.06	1.31	0.978	1.31	1.18	0.692	0.588	0.64	0.648	0.656
NCI-H1666	0.71	0.414	0.403	0.384	0.784	0.775	0.915	0.788	0.772	0.839	0.771	0.814	0.873	0.996	0.886	0.754	0.771	0.94	0.803
NCI-H460	0.455	0.376	0.0862	0.0869	0.0659	0.0591	0.0606	0.0625	0.0649	0.77	0.673	0.571	0.505	0.598	0.643	0.627	0.547	0.686	0.472
NCI-H1792	0.613	0.528	0.21	0.107	0.789	0.64	0.62	0.69	0.872	0.582	0.502	0.617	0.7	0.515	0.655	0.611	0.683	0.628	0.512
NCI-H2087	0.453	0.313	0.252	0.298	0.622	0.714	0.629	0.578	0.674	1.43	1.32	1.22	1.3	1.22	0.546	0.519	0.443	0.642	0.617
EKVX	1.1	0.906	0.377	0.238	0.373	0.344	0.337	0.34	0.424	0.695	0.615	0.693	0.647	0.63	0.731	0.665	0.637	0.642	0.723
NCI-H1355	0.671	0.403	0.2	0.201	1.03	0.996	0.965	1.05	1	0.75	0.639	0.633	0.735	0.687	0.366	0.296	0.404	0.423	0.411
PC-3 [JPC-3]	0.842	0.413	0.377	0.412	1.07		0.99	1.1	1.07	0.705		0.656	0.843	0.782	0.78	0.647	0.646	0.776	0.692
NCI-H2085	0.584	0.672	0.381	0.497	0.722	0.767	0.862	0.874	0.875	0.975	0.878	0.923	0.988	0.836	0.762	0.728	0.653	0.643	0.7
NCI-H1993	0.688	0.608	0.643	0.693	0.537	0.58	0.498	0.575	0.46	0.657	0.679	0.584	0.529	0.407	0.519	0.583	0.561	0.598	0.527
LK-2	0.468	0.529	0.309	0.165	0.329	0.263	0.239	0.335	0.258	0.454	0.288	0.316	0.363	0.427	0.202	0.227	0.22	0.189	0.276
LC-2-ad	0.48	0.237	0.179	0.184	0.298	0.273	0.264	0.268	0.276	0.832	0.783	0.78	0.843	0.827	0.806	0.91		0.884	0.789
NCI-H596	1.01	1	0.556	0.537	0.463	0.436	0.489	0.506	0.53	1.04	0.995	1.01	1.04	0.985	0.798	0.612	0.607	0.706	0.599
LCLC-97TM1	0.118	0.189	0.168	0.169	0.165	0.134		0.201	0.173	0.248	0.338	0.268	0.227	0.222	0.519	0.456	0.431	0.592	0.568
NCI-H1395		0.804	0.484	0.29	0.921	0.758	0.693	0.914	0.815	0.397	0.35	0.381	0.383	0.389	0.557	0.555	0.601	0.644	0.615
NCI-H2126		0.414	0.355	0.335	0.674	0.661	0.613	0.689	0.649	1.06	0.993	1.02	0.942	1.02	0.752	0.666	0.764	0.595	0.808

Cell Line	relative viability ([1]; first compound 0.6325 µM)	relative viability ([1]; first compound 2 µM)	relative viability ([1]; first compound 6.325 µM)	relative viability ([1]; first compound 20 µM)	relative viability ([2]; first compound 0.02 µM)	relative viability ([2]; first compound 0.06325 µM)	relative viability ([2]; first compound 0.2 µM)	relative viability ([2]; first compound 0.6325 µM)	relative viability ([2]; first compound 2 µM)	relative viability ([3]; first compound 0.02 µM)	relative viability ([3]; first compound 0.06325 µM)	relative viability ([3]; first compound 0.2 µM)	relative viability ([3]; first compound 0.6325 µM)	relative viability ([3]; first compound 2 µM)	relative viability ([4]; first compound 0.02 µM)	relative viability ([4]; first compound 0.06325 µM)	relative viability ([4]; first compound 0.2 µM)	relative viability ([4]; first compound 0.6325 µM)	relative viability ([4]; first compound 2 µM)
EPLC-272H	0.943	0.241	0.202	0.287	0.359	0.357	0.345	0.376	0.313	0.207	0.144	0.201	0.167	0.19	0.271	0.291	0.299	0.306	0.276
NCI-H1793		0.609	0.272	0.341	0.682		0.725	0.739	0.729	0.442		0.331	0.413	0.328	0.247	0.253	0.233	0.282	0.2
NCI-H2347	0.761	0.739	0.498	0.5	0.462	0.423	0.434	0.356	0.415	0.717	0.784	0.68	0.722	0.831	0.395	0.399	0.406	0.454	0.422
LU99A	0.233	0.247	0.224	0.238	0.192	0.183	0.158	0.168	0.187	0.522	0.27	0.367	0.458	0.317	0.315	0.251	0.299	0.298	0.307
NCI-H1915	0.374	0.238	0.187	0.171	0.51	0.491	0.497	0.472	0.428	0.671	0.627	0.684	0.681	0.711	0.649	0.559	0.62	0.65	0.596
H3255	0.803	0.439	0.26	0.298	0.56	0.49	0.571	0.582	0.565	0.932	0.724	0.793	0.788	0.899	0.621	0.551	0.597	0.491	0.639
BEN	1.06	0.7	0.3	0.378	0.924	0.694	0.752	0.765	0.758	0.82	0.634	0.76	0.599	0.788	0.305	0.298	0.295	0.284	0.244
NCI-H23	0.607	0.339	0.248	0.281	0.632	0.517	0.512		0.497	0.302	0.231	0.215		0.249	0.496	0.525	0.553	0.605	0.538
NCI-H1944	0.819	0.38	0.241	0.249	0.703	0.478	0.676	0.583	0.613	0.549	0.377	0.525	0.497	0.561	0.436	0.292	0.4	0.4	0.404
NCI-H441	0.547	0.339	0.241	0.341	0.246	0.274	0.254	0.266	0.255	1	1.09	1.24	0.984	0.94	0.653	0.597	0.698	0.788	0.469
NCI-H1437	0.61	0.593	0.28	0.142	0.295	0.281	0.308	0.319	0.308	1.07	1.18	1.06	1.1	1.11	1.03	0.849	0.808	0.839	0.83
HARA	0.623	0.152	0.148	0.154	0.289	0.212	0.227	0.264	0.229	0.471	0.268	0.263	0.303	0.438	0.569	0.265	0.487	0.429	0.418
LOU-NH91	0.834	0.706	0.431	0.309	0.375	0.38	0.35	0.366	0.318	0.816	0.624	0.76	0.807	0.814	0.74	0.453	0.7	0.667	0.752
NCI-H838	1.17	0.849	0.372	0.228	0.249	0.246	0.227	0.27	0.22	0.904	0.92	0.945	0.901	0.862	0.374	0.368	0.361	0.407	0.412
NCI-H1975	1.1	0.803	0.326	0.204	0.263	0.259	0.276	0.281	0.288	0.72	0.777	0.691	0.617	0.689	0.692	0.645	0.563		0.571
NCI-H647	1.03	0.329	0.178	0.15	0.199	0.166	0.165	0.185	0.172	0.59	0.452	0.408	0.471	0.549	0.69	0.723	0.534	0.46	0.582
A-427		0.231	0.221	0.198	0.936	0.976	0.941	0.946	1.05	0.791	0.634	0.692	0.775	0.728	0.539	0.463	0.431	0.527	0.4
